Three compounds from paper PMC5560554, “Targeting of CDK9 with indirubin 3’-monoxime safely and durably reduces HIV viremia in chronically infected humanized mice” (PLoS ONE, 2017) can be followed below.

Like-named read-outs stand apart in the source and are kept apart here.

The test deals with HIV-1 NL4-3. Kind of test: Drug susceptibility assay in PHA-activated PBMCs (HIV p24 ELISA day 7). Type of test: cell-based. The note with it: for decrease of ART EC50 value at 1 μM IM: HIV-1 NL4-3 in PBMCs, EC50 without IM vs with 1 μM IM; for EC50: Human immunodeficiency virus 1, NL43, PBMC, 168 h, HIV NL4-3 in PBMCs, p24 day 7, (95% CI) in cell; for P24: PBMCs, NL4-3, day 7. On the procedure:
The ARTs tenofovir, raltegravir and indinavir were obtained from the NIH AIDS Research and Reference Reagent Program (Gaithersburg, MD). Drug susceptibility assays were performed in PBMCs as previously. Briefly, donor PBMCs were activated by culture with phytohemagglutinin (PHA) for 3 days. Activated PBMCs were infected with HIV (M.O.I of 0.001) for 2 hours in the absence of IM or ARTs, washed to remove non-adsorbed virus, and plated in culture medium containing IL-2 and various dilutions of IM and ARTs alone and in combination. On day 3, fresh medium with fresh drug was added to the cultures. On day 7, cultures were evaluated for HIV production by measuring HIV p24 levels in the culture supernatants by ELISA (PerkinElmer Life Sciences, Inc., Boston, Massachusetts). Data were normalized to p24 levels in drug untreated controls (100%) and EC50 values determined by fitting the data to sigmoidal dose-response (variable slope) curves using GraphPad Prism 5.0 software.
A potential use of CDK9 inhibitor for the treatment of HIV will probably be in combination with ARTs from other classes. We thus evaluated the antiviral interaction between IM and ARTs from the NRTI, integrase and protease inhibitor classes in PBMCs infectivity assays in vitro. We used the virus strain HIV-1 NL4-3 to ensure a robust viral replication in the assays. Although HIV-1 NL4-3 differs from HIV-1 BaL in usage of coreceptor for cell entry, it is expected to have similar sensitivity to the tested ARTs. […] These enhancements of ART potencies by IM are consistent with targeting of different steps of the HIV cycle by IM and the tested ARTs.

[1] abbreviates: read-out: Geometric mean ART EC50, + 1μM IM.
Setting [2] is: read-out: Geometric mean ART EC50, No IM.

`CC(C)(C)NC(=O)[C@@H]1CN(Cc2cccnc2)CCN1C[C@@H](O)C[C@@H](Cc1ccccc1)C(=O)N[C@H]1c2ccccc2C[C@H]1O` [IND, indinavir]: the “decrease of ART EC50 value at 1 μM IM” value amounted to 2.2 fold. Under “+ 1μM IM, read-out: Geometric mean ART EC50”, the EC50 (as a rule, the concentration needed to bring the measured effect to its halfway point) was 3.55 nM. Besides, the EC50 (No IM, read-out: Geometric mean ART EC50) worked out at 7.74 nM. In addition, the P24 (IND 1.8 nM, + IM) amounted to 2.00 ng/mL. Moreover, for the setting “IND 1.8 nM, No IM”, the P24 turned out to be 41.00 ng/mL. The P24 (IND 5.5 nM, + IM) worked out at 2.30 ng/mL. Besides, for the setting “IND 5.5 nM, No IM”, the P24 worked out at 37.00 ng/mL. Moreover, the P24 (IND 16.6 nM, + IM) was 0.70 ng/mL. Also, the P24 (IND 16.6 nM, No IM) stood at 17.00 ng/mL. Besides, under “IND 50 nM, + IM”, the P24 was 0.01 ng/mL. Moreover, the P24 (IND 50 nM, No IM) stood at 0.01 ng/mL. Also, the P24 (IND 150 nM, + IM) came out at 0.01 ng/mL. In addition, the P24 (IND 150 nM, No IM) was determined as 0.01 ng/mL.

On to `Cc1nnc(C(=O)NC(C)(C)c2nc(C(=O)NCc3ccc(F)cc3)c(O)c(=O)n2C)o1` [RAL, raltegravir], for which the “decrease of ART EC50 value at 1 μM IM” value is listed as 3.3 fold. Also, the EC50 under setting [1] was determined as 2.12 nM. In addition, the EC50 under setting [2] worked out at 6.98 nM. The P24 (RAL 0.05 nM, + IM) is 9.50 ng/mL. Moreover, the P24 (RAL 0.05 nM, No IM) turned out to be 27.0 ng/mL. For the same compound, the P24 (RAL 0.15 nM, + IM) came out at 6.00 ng/mL. For the same compound, the P24 (RAL 0.15 nM, No IM) worked out at 23.0 ng/mL. Also, the P24 (RAL 0.5 nM, + IM) was found to be 6.50 ng/mL. Moreover, the P24 (RAL 0.5 nM, No IM) came out at 27.0 ng/mL. In addition, the P24 (RAL 1.5 nM, + IM) turned out to be 5.00 ng/mL. Also, for the setting “RAL 1.5 nM, No IM”, the P24 is 26.0 ng/mL. In addition, the P24 (RAL 5 nM, + IM) was 2.30 ng/mL. For the same compound, the P24 (RAL 5 nM, No IM) stood at 17.0 ng/mL. The P24 (RAL 15 nM, + IM) amounted to 1.10 ng/mL. In addition, the P24 (RAL 15 nM, No IM) amounted to 2.8 ng/mL. Further, the P24 (RAL 45 nM, + IM) is 0.01 ng/mL. Besides, the P24 (RAL 45 nM, No IM) came to 0.6 ng/mL.

Consider `C[C@H](Cn1cnc2c(N)ncnc21)OCP(=O)(O)O` [TDF, tenofovir], for which the “decrease of ART EC50 value at 1 μM IM” value is recorded as 3 fold. Moreover, under setting [1], the EC50 worked out at 190 nM. Besides, the EC50 under setting [2] is 600 nM. The P24 (TDF 0.01 µM, + IM) is 10.0 ng/mL. Further, where the note is “TDF 0.01 µM, No IM”, the P24 came to 63.0 ng/mL. Besides, for the setting “TDF 0.03 µM, + IM”, the P24 came out at 9.0 ng/mL. Where the note is “TDF 0.03 µM, No IM”, the P24 turned out to be 61.0 ng/mL. In addition, under “TDF 0.1 µM, + IM”, the P24 amounted to 6.6 ng/mL. For the same compound, the P24 (TDF 0.1 µM, No IM) is 48.0 ng/mL. In addition, for the setting “TDF 0.3 µM, + IM”, the P24 was 3.8 ng/mL. The P24 (TDF 0.3 µM, No IM) was found to be 35.0 ng/mL. Further, the P24 (TDF 1 µM, + IM) is 1.7 ng/mL. Moreover, under “TDF 1 µM, No IM”, the P24 stood at 17.0 ng/mL. For the same compound, the P24 (TDF 3 µM, + IM) stood at 0.7 ng/mL. In addition, the P24 (TDF 3 µM, No IM) was found to be 4.0 ng/mL. For the same compound, for the setting “TDF 10 µM, + IM”, the P24 came to 0.3 ng/mL. For the same compound, the P24 (TDF 10 µM, No IM) came out at 0.6 ng/mL.
